Source: ChEMBL document CHEMBL1201862, “PubChem BioAssay data set” (2004)
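Exposure lasted 48 hours, with cells grown in 96-well plates and compounds tested at five concentrations. GI50 marks 50% less growth.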 Active and inactive are the calls of the source. Rule as the data show it: active = GI50 up to about 1.1 µM and inactive = higher.

Key:
Experiment in all cases: growth of human tumour cells (NCI), 48 h
RPMI-8226 = tested on: RPMI-8226
HCC 2998 = tested on: HCC 2998
SK-OV-3 = tested on: SK-OV-3
Malme-3M = tested on: Malme-3M
HCT-116 = tested on: HCT-116
LXFL 529 = tested on: LXFL 529
MOLT-4 = tested on: MOLT-4
CCRF-CEM = tested on: CCRF-CEM
UO-31 = tested on: UO-31
A549 = tested on: A549
HOP-18 = tested on: HOP-18
DMS-114 = tested on: DMS-114
SNB-78 = tested on: SNB-78
HCT-15 = tested on: HCT-15
SK-MEL-28 = tested on: SK-MEL-28
NCI-H522 = tested on: NCI-H522
DMS-273 = tested on: DMS-273
M14 = tested on: M14
SK-MEL-2 = tested on: SK-MEL-2
HL-60 = tested on: HL-60
RXF 393 = tested on: RXF 393
K562 = tested on: K562
U-251 = tested on: U-251
OVCAR-3 = tested on: OVCAR-3
786-0 = tested on: 786-0
SF-268 = tested on: SF-268
NCI-H460 = tested on: NCI-H460
ACHN = tested on: ACHN
HT-29 = tested on: HT-29
NCI-H226 = tested on: NCI-H226
SNB-19 = tested on: SNB-19
CAKI-1 = tested on: CAKI-1
SK-MEL-5 = tested on: SK-MEL-5
KM-20L2 = tested on: KM-20L2
LOX IMVI = tested on: LOX IMVI
UACC-62 = tested on: UACC-62
OVCAR-5 = tested on: OVCAR-5
OVCAR-8 = tested on: OVCAR-8
NCI-H23 = tested on: NCI-H23
M19-MEL = tested on: M19-MEL
SNB-75 = tested on: SNB-75
SF-295 = tested on: SF-295
SR = tested on: SR
KM12 = tested on: KM12
IGROV-1 = tested on: IGROV-1
EKVX = tested on: EKVX
SW-620 = tested on: SW-620
SF-539 = tested on: SF-539
A498 = tested on: A498
SN12C = tested on: SN12C
DLD-1 = tested on: DLD-1
UACC-257 = tested on: UACC-257
HOP-62 = tested on: HOP-62
OVCAR-4 = tested on: OVCAR-4
DU-145 = tested on: DU-145
BT-549 = tested on: BT-549
Hs-578T = tested on: Hs-578T
COLO 205 = tested on: COLO 205
TK-10 = tested on: TK-10
HOP-92 = tested on: HOP-92
NCI/ADR-RES = tested on: NCI/ADR-RES
PC-3 = tested on: PC-3
T47D = tested on: T47D
MDA-MB-435 = tested on: MDA-MB-435
MDA-N = tested on: MDA-N
MCF7 = tested on: MCF7
MDA-MB-231 = tested on: MDA-MB-231

CCOc1ccccc1NC(=O)C(=O)C1C(=O)Nc2ccccc2[S+]1[O-] (stereo unspecified)
GI50 (RPMI-8226): > 100 µM (inactive) | GI50 (HCC 2998): > 100 µM (inactive) | GI50 (SK-OV-3): > 100 µM (inactive) | GI50 (Malme-3M): > 100 µM (inactive) | GI50 (HCT-116): > 100 µM (inactive) | GI50 (LXFL 529): > 100 µM (inactive) | GI50 (MOLT-4): > 100 µM (inactive) | GI50 (CCRF-CEM): > 100 µM (inactive) | GI50 (UO-31): > 100 µM (inactive) | GI50 (A549): > 100 µM (inactive) | GI50 (HOP-18): > 100 µM (inactive) | GI50 (DMS-114): > 100 µM (inactive) | GI50 (SNB-78): > 100 µM (inactive) | GI50 (HCT-15): > 100 µM | GI50 (SK-MEL-28): > 100 µM (inactive) | GI50 (NCI-H522): > 100 µM (inactive) | GI50 (DMS-273): > 100 µM (inactive) | GI50 (M14): > 100 µM (inactive) | GI50 (SK-MEL-2): > 100 µM (inactive) | GI50 (HL-60): > 100 µM (inactive) | GI50 (RXF 393): > 100 µM (inactive) | GI50 (K562): > 100 µM (inactive) | GI50 (U-251): > 100 µM (inactive) | GI50 (OVCAR-3): > 100 µM (inactive) | GI50 (786-0): > 100 µM (inactive) | GI50 (SF-268): > 100 µM (inactive) | GI50 (NCI-H460): > 100 µM (inactive)

COc1cc(C(C)c2cc3c(cc2OCCCCCOc2cc4c(cc2C(C)c2cc(OC)c(OC)c(OC)c2)OCO4)OCO3)cc(OC)c1OC (stereo unspecified)
GI50 (RPMI-8226): > 100 µM (inactive) | GI50 (HCC 2998): > 100 µM (inactive) | GI50 (ACHN): > 100 µM (inactive) | GI50 (Malme-3M): > 100 µM (inactive) | GI50 (HCT-116): > 100 µM (inactive) | GI50 (HT-29): > 100 µM (inactive) | GI50 (NCI-H226): > 100 µM (inactive) | GI50 (SNB-19): > 100 µM (inactive) | GI50 (CAKI-1): > 100 µM (inactive) | GI50 (SK-MEL-5): > 100 µM (inactive) | GI50 (LXFL 529): > 100 µM (inactive) | GI50 (KM-20L2): > 100 µM (inactive) | GI50 (LOX IMVI): > 100 µM (inactive) | GI50 (UACC-62): > 100 µM (inactive) | GI50 (MOLT-4): > 100 µM (inactive) | GI50 (OVCAR-5): > 100 µM (inactive) | GI50 (CCRF-CEM): > 100 µM (inactive) | GI50 (UO-31): > 100 µM (inactive) | GI50 (OVCAR-8): > 100 µM (inactive) | GI50 (A549): > 100 µM (inactive) | GI50 (NCI-H23): > 100 µM (inactive) | GI50 (HCT-15): > 100 µM | GI50 (SK-MEL-28): > 100 µM (inactive) | GI50 (NCI-H522): > 100 µM (inactive) | GI50 (M19-MEL): > 100 µM (inactive) | GI50 (SNB-75): 59.8 µM (inactive) | GI50 (SF-295): > 100 µM (inactive) | GI50 (SR): > 100 µM (inactive) | GI50 (KM12): > 100 µM (inactive) | GI50 (IGROV-1): > 100 µM (inactive) | GI50 (DMS-273): > 100 µM (inactive) | GI50 (EKVX): > 100 µM (inactive) | GI50 (SW-620): > 100 µM (inactive) | GI50 (M14): > 100 µM (inactive) | GI50 (SF-539): > 100 µM (inactive) | GI50 (A498): > 100 µM (inactive) | GI50 (SK-MEL-2): > 100 µM (inactive) | GI50 (SN12C): > 100 µM (inactive) | GI50 (HL-60): > 100 µM (inactive) | GI50 (DLD-1): > 100 µM (inactive) | GI50 (RXF 393): > 100 µM (inactive) | GI50 (K562): > 100 µM (inactive) | GI50 (UACC-257): 33.7 µM (inactive) | GI50 (U-251): > 100 µM (inactive) | GI50 (OVCAR-3): > 100 µM (inactive) | GI50 (HOP-62): > 100 µM (inactive) | GI50 (786-0): > 100 µM (inactive) | GI50 (SF-268): > 100 µM (inactive) | GI50 (OVCAR-4): > 100 µM (inactive) | GI50 (NCI-H460): > 100 µM (inactive)

COC(=O)c1ccc(C)cc1C1CN=NC12Cc1cc(C)ccc1C2=O (stereo unspecified)
GI50 (DU-145): 34 µM (inactive) | GI50 (RPMI-8226): 16.4 µM (inactive) | GI50 (HCC 2998): 23.8 µM (inactive) | GI50 (BT-549): 15.3 µM (inactive) | GI50 (SK-OV-3): 23.2 µM (inactive) | GI50 (ACHN): 28.1 µM (inactive) | GI50 (Hs-578T): 8.67 µM (inactive) | GI50 (COLO 205): 6.44 µM (inactive) | GI50 (Malme-3M): 13.2 µM (inactive) | GI50 (TK-10): 22.8 µM (inactive) | GI50 (HCT-116): 7.64 µM (inactive) | GI50 (HT-29): 3.32 µM (inactive) | GI50 (NCI-H226): 21.2 µM (inactive) | GI50 (SNB-19): 18.8 µM (inactive) | GI50 (CAKI-1): 11.8 µM (inactive) | GI50 (SK-MEL-5): 8.28 µM (inactive) | GI50 (LOX IMVI): 10.4 µM (inactive) | GI50 (UACC-62): 8 µM (inactive) | GI50 (HOP-92): 21.7 µM (inactive) | GI50 (MOLT-4): 10.3 µM (inactive) | GI50 (OVCAR-5): 30 µM (inactive) | GI50 (CCRF-CEM): 15.9 µM (inactive) | GI50 (UO-31): 24 µM (inactive) | GI50 (OVCAR-8): 27.2 µM (inactive) | GI50 (A549): 25.4 µM (inactive) | GI50 (NCI-H23): 18.1 µM (inactive) | GI50 (NCI/ADR-RES): 6.64 µM (inactive) | GI50 (PC-3): 11.5 µM (inactive) | GI50 (HCT-15): 5.24 µM | GI50 (SK-MEL-28): 23.2 µM (inactive) | GI50 (NCI-H522): 5.06 µM (inactive) | GI50 (SNB-75): 8.61 µM (inactive) | GI50 (SF-295): 7.28 µM (inactive) | GI50 (T47D): 20.8 µM (inactive) | GI50 (SR): 4.41 µM (inactive) | GI50 (KM12): 6.14 µM (inactive) | GI50 (IGROV-1): 8.85 µM (inactive) | GI50 (MDA-MB-435): 2.18 µM (inactive) | GI50 (EKVX): 23.4 µM (inactive) | GI50 (MDA-N): 2.37 µM (inactive) | GI50 (SW-620): 5.35 µM (inactive) | GI50 (M14): 9.31 µM (inactive) | GI50 (SF-539): 13.9 µM (inactive) | GI50 (A498): 12.1 µM (inactive) | GI50 (SK-MEL-2): 8.22 µM (inactive) | GI50 (SN12C): 23.9 µM (inactive) | GI50 (HL-60): 3.58 µM (inactive) | GI50 (MCF7): 3.61 µM (inactive) | GI50 (RXF 393): 13.8 µM (inactive) | GI50 (K562): 4.84 µM (inactive) | GI50 (UACC-257): 17.7 µM (inactive) | GI50 (U-251): 11.7 µM (inactive) | GI50 (OVCAR-3): 9.14 µM (inactive) | GI50 (HOP-62): 20.1 µM (inactive) | GI50 (MDA-MB-231): 14 µM (inactive) | GI50 (786-0): 21.3 µM (inactive) | GI50 (SF-268): 25.6 µM (inactive) | GI50 (OVCAR-4): 26.2 µM (inactive) | GI50 (NCI-H460): 27.5 µM (inactive)

CC(C)C(=O)CC(c1ccc(Cl)cc1)N1N=C(C(C)C)CC1c1ccc(Cl)cc1 (stereo unspecified)
GI50 (SK-OV-3): < 0.01 µM (active) | GI50 (Malme-3M): < 0.01 µM (active) | GI50 (TK-10): > 100 µM (inactive) | GI50 (HT-29): 14.6 µM (inactive) | GI50 (NCI-H226): > 100 µM (inactive) | GI50 (LXFL 529): 98.4 µM (inactive) | GI50 (LOX IMVI): < 0.01 µM (active) | GI50 (HOP-92): > 86.3 µM (inactive) | GI50 (HOP-18): < 0.01 µM (active) | GI50 (NCI-H23): 22.6 µM (inactive) | GI50 (SNB-78): 5.97 µM (inactive) | GI50 (SK-MEL-28): 40.7 µM (inactive) | GI50 (NCI-H522): < 0.01 µM (active) | GI50 (SNB-75): 86.9 µM (inactive) | GI50 (KM12): 40.6 µM (inactive) | GI50 (DMS-273): < 0.01 µM (active) | GI50 (EKVX): 29.5 µM (inactive) | GI50 (SW-620): 37.2 µM (inactive) | GI50 (SK-MEL-2): > 51.5 µM (inactive) | GI50 (SN12C): < 0.01 µM (active) | GI50 (HOP-62): 70 µM (inactive)

COc1ccc(/C=C/c2cc(OC)c(OC)c(OC)c2)cc1O [E-COMBRETASTATIN A-4]
GI50 (BT-549): 8.95 µM (inactive) | GI50 (TK-10): 13.3 µM (inactive) | GI50 (HT-29): 7.89 µM (inactive) | GI50 (CAKI-1): 6.71 µM (inactive) | GI50 (KM-20L2): 8.71 µM (inactive) | GI50 (OVCAR-5): 22.2 µM (inactive) | GI50 (UO-31): 1.13 µM (inactive) | GI50 (IGROV-1): 3.17 µM (inactive) | GI50 (EKVX): 8.73 µM (inactive)
